Measurements: US20130130992A1, “DIPEPTIDE DERIVATIVE FOR THE TREATMENT OF CANCER” (ONCOTEST GMBH, priority 2010, published 2013)

What was measured:
Type in all cases: cell-based
BXF 1218L = assay: Monolayer propidium iodide assay, BXF 1218L; settings: Homo sapiens, 96 h, Bladder, 4 days of treatment
Source text: (§1) Oncotest GmbH, Germany's proprietary tumor cell line panel comprises 40 cell lines. These cell lines were derived from 15 different tumor histotypes, each represented by 1 to 6 different cell lines. Cell lines were established from cancer of the bladder (3), colon (4), head and neck (1), lung (6), breast (3), pancreas (3), prostate (4), ovary (2), kidney (3), liver (1), stomach (1) and the uteri body (1), as well as from melanoma (3), sarcoma (2) and pleuramesothelioma (3). Out of these 40 cell lines, 24 cell lines were established at Oncotest, from patient-derived tumor xenografts. […]
(§2) Stock solutions of the compound of formula (1) (3.3 mM in DMSO) were prepared and stored in small aliquots (200 μl) at −20° C. […] Each concentration was evaluated in triplicate. […]
(§3) Cells were plated in 96-well flat-bottom microtiter plates at a cell density of 4,000 to 20,000 cells/well. […] After an incubation period of 1-2 hours at room temperature, fluorescence (FU) was measured using the Cytofluor 4000 microplate reader (excitation λ=530 nm, emission λ=620 nm) to quantify the amount of attached viable cells. […] Based on the T/C values, relative IC50 values were determined by non-linear regression (log [conc. of inhibitor] versus response (% T/C)) using the GraphPad Prism® analysis software (Prism 5 for Windows, version 5.01, GraphPad Software Inc., CA). […]

BXF 1352L = assay: Monolayer propidium iodide assay, BXF 1352L; settings: Homo sapiens, 96 h, Bladder, 4 days of treatment
Source text: as §1, §2, §3

BXF T 24 = assay: Monolayer propidium iodide assay, BXF T 24; settings: Homo sapiens, 96 h; BXF T 24, Bladder; 4 days of treatment
Source text: as §1, §2, §3

CXF 269L = assay: Monolayer propidium iodide assay, CXF 269L; settings: Homo sapiens, 96 h, Colon, 4 days of treatment
Source text: as §1, §2, §3

CXF HCT 116 = assay: Monolayer propidium iodide assay, CXF HCT 116; settings: Homo sapiens, 96 h; CXF HCT 116, Colon; 4 days of treatment
Source text: as §1, §2, §3

CXF HT 29 = assay: Monolayer propidium iodide assay, CXF HT 29; settings: Homo sapiens, 96 h; CXF HT 29, Colon; 4 days of treatment
Source text: as §1, §2, §3

CXF RKO = assay: Monolayer propidium iodide assay, CXF RKO; settings: Homo sapiens, 96 h, Colon, 4 days of treatment
Source text: as §1, §2, §3

GXF 251 L = assay: Monolayer propidium iodide assay, GXF 251 L; settings: Homo sapiens, 96 h, Gastric, 4 days of treatment
Source text: as §1, §2, §3

HNXF CAL 27 = assay: Monolayer propidium iodide assay, HNXF CAL 27; settings: Homo sapiens, 96 h; HNXF CAL 27, Head and Neck; 4 days of treatment
Source text: as §1, §2, §3

LIXF 575L = assay: Monolayer propidium iodide assay, LIXF 575L; settings: Homo sapiens, 96 h, Liver, 4 days of treatment
Source text: as §1, §2, §3

LXFA 289L = assay: Monolayer propidium iodide assay, LXFA 289L; settings: Homo sapiens, 96 h, Lung, 4 days of treatment
Source text: as §1, §2, §3

LXFA 526L = assay: Monolayer propidium iodide assay, LXFA 526L; settings: Homo sapiens, 96 h, Lung, 4 days of treatment
Source text: as §1, §2, §3

LXFA 629L = assay: Monolayer propidium iodide assay, LXFA 629L; settings: Homo sapiens, 96 h, Lung, 4 days of treatment
Source text: as §1, §2, §3

LXFL 1121L = assay: Monolayer propidium iodide assay, LXFL 1121L; settings: Homo sapiens, 96 h, Lung, 4 days of treatment
Source text: as §1, §2, §3

LXFL 529L = assay: Monolayer propidium iodide assay, LXFL 529L; settings: Homo sapiens, 96 h, Lung, 4 days of treatment
Source text: as §1, §2, §3

LXFL H 460 = assay: Monolayer propidium iodide assay, LXFL H 460; settings: Homo sapiens, NCI-H460, 96 h; LXFL H 460, Lung; 4 days of treatment
Source text: as §1, §2, §3

MAXF 401NL = assay: Monolayer propidium iodide assay, MAXF 401NL; settings: Homo sapiens, 96 h, Mammary, 4 days of treatment
Source text: as §1, §2, §3

MAXF MCF 7 = assay: Monolayer propidium iodide assay, MAXF MCF 7; settings: Homo sapiens, MCF7, 96 h; MAXF MCF 7, Mammary; 4 days of treatment
Source text: as §1, §2, §3

MAXF MDA 231 = assay: Monolayer propidium iodide assay, MAXF MDA 231; settings: Homo sapiens, MDA-MB-231, 96 h; MAXF MDA 231, Mammary; 4 days of treatment
Source text: as §1, §2, §3

MEXF 1341L = assay: Monolayer propidium iodide assay, MEXF 1341L; settings: Homo sapiens, 96 h, Melanoma, 4 days of treatment
Source text: as §1, §2, §3

MEXF 276L = assay: Monolayer propidium iodide assay, MEXF 276L; settings: Homo sapiens, MEXF276L, 96 h, Melanoma, 4 days of treatment
Source text: as §1, §2, §3

MEXF 462NL = assay: Monolayer propidium iodide assay, MEXF 462NL; settings: Homo sapiens, 96 h, Melanoma, 4 days of treatment
Source text: as §1, §2, §3

OVXF 899L = assay: Monolayer propidium iodide assay, OVXF 899L; settings: Homo sapiens, 96 h, Ovarian, 4 days of treatment
Source text: as §1, §2, §3

OVXF OVCAR3 = assay: Monolayer propidium iodide assay, OVXF OVCAR3; settings: Homo sapiens, OVCAR-3, 96 h; OVXF OVCAR3, Ovarian; 4 days of treatment
Source text: as §1, §2, §3

PAXF 1657L = assay: Monolayer propidium iodide assay, PAXF 1657L; settings: Homo sapiens, 96 h, Pancreas, 4 days of treatment
Source text: as §1, §2, §3

PAXF 546L = assay: Monolayer propidium iodide assay, PAXF 546L; settings: Homo sapiens, 96 h, Pancreas, 4 days of treatment
Source text: as §1, §2, §3

PAXF PANC 1 = assay: Monolayer propidium iodide assay, PAXF PANC 1; settings: Homo sapiens, 96 h; PAXF PANC 1, Pancreas; 4 days of treatment
Source text: as §1, §2, §3

PRXF 22RV1 = assay: Monolayer propidium iodide assay, PRXF 22RV1; settings: Homo sapiens, 96 h; PRXF 22RV1, Prostate; 4 days of treatment
Source text: as §1, §2, §3

IC50 (BXF 1218L): 46 nM
IC50 (BXF 1352L): 103 nM
IC50 (BXF T 24): 50 nM
IC50 (CXF 269L): 55 nM
IC50 (CXF HCT 116): 48 nM
IC50 (CXF HT 29): 137 nM
IC50 (CXF RKO): 74 nM
IC50 (GXF 251 L): 93 nM
IC50 (HNXF CAL 27): 39 nM
IC50 (LIXF 575L): 295 nM
IC50 (LXFA 289L): 41 nM
IC50 (LXFA 526L): 21 nM
IC50 (LXFA 629L): 40 nM
IC50 (LXFL 1121L): 47 nM
IC50 (LXFL 529L): 50 nM
IC50 (LXFL H 460): 146 nM
IC50 (MAXF 401NL): 64 nM
IC50 (MAXF MCF 7): 276 nM
IC50 (MAXF MDA 231): 90 nM
IC50 (MEXF 1341L): 102 nM
IC50 (MEXF 276L): 90 nM
IC50 (MEXF 462NL): 149 nM
IC50 (OVXF 899L): 301 nM
IC50 (OVXF OVCAR3): 195 nM
IC50 (PAXF 1657L): 39 nM
IC50 (PAXF 546L): 16 nM
IC50 (PAXF PANC 1): 59 nM
IC50 (PRXF 22RV1): 159 nM
SMILES: CCCC1CCCCCC(O)CC(=O)NC2CSSCC(NC2=O)C(=O)O1 (stereo not shown) [compound of formula (1)]
